Where “and” joins values, the source holds several entries; their conditions need not be identical. Identical values can stand only once. Like-named read-outs stand apart in the source and are kept apart here.
Tests used:
[1] = target: PTK2 (FAK) (Homo sapiens (Human), UniProt Q05397); assay: Z′-LYTE kinase assay (SelectScreen Biochemical Kinase Profiling), enzymatic IC50
Protocol: Enzymatic IC50 data was obtained through ThermoFisher Scientific SelectScreen™ Biochemical Kinase Profiling Service, using a Z′-LYTE™ kinase-specific assay, as described below.
The test compounds were screened in 1% dimethyl sulfoxide (DMSO) (final) in the well. For 10 point titrations, 3-fold serial dilutions were conducted from the starting concentration.
All peptide/kinase mixtures were diluted to a 2× working concentration in the appropriate kinase buffer (see section kinase specific assay conditions for a complete description).
All ATP solutions were diluted to a 4× working concentration in kinase buffer (50 mM 4-(2-hydroxyethyl)-1-piperazineethanesulfonic acid (HEPES) pH 7.5, 0.01% BRIJ-35, 10 mM MgCl2, 1 mM ethylene glycol-bis(β-aminoethyl ether)-N,N,N′,N′-tetraacetic acid (EGTA)). ATP Km apparent was previously determined using a Z′-LYTE assay.
The development reagent was diluted in development buffer (see section kinase-specific assay conditions—direct and cascade for a complete description).
Using a bar-coded Corning, low volume NBS, black 384-well plate (Corning Cat. #4514), 100 nL of 100× test compound in 100% DMSO was added. […] The plate was then shaken for 30 seconds and held at room temperature for a 60 minute kinase reaction incubation period. At which point 5 μL of development reagent solution was added and the plate was shaken for 30 seconds. The plate was held again at room temperature for a 60 minute development reaction incubation period and then read on a fluorescence plate reader and analyzed.
The 2×PTK2 (FAK)/Tyr 07 mixture was prepared in 50 mM HEPES pH 7.5, 0.01% BRIJ-35, 10 mM MgCl2, 1 mM EGTA. […] After the 1 hour kinase reaction incubation period, 5 μL of a 1:16 dilution of development reagent B was added.
SelectScreen Kinase Profiling Service uses XLfit from ID Business Solutions (IDBS). The dose response curve was curve fit to model number 205 (sigmoidal dose-response model).

[2] = tested on: MDA-MB-231 cells; assay: ultra-low adherent 3D-spheroid suspension cell viability (3D Cell Titer-Glo), 120 hours; type: cell-based; settings: Homo sapiens
Protocol: For ultra-low adherent 3D-spheroid suspensions, MDA-MB-231 cells were plated in 384-well format in media containing 10% Matrigel® and allowed to form spheroids overnight. Cells were treated with indicated molecules from compound stock plates using a JANUS® Workstation pin tool for 120 hours. To measure cell viability, 3D Cell Titer-Glo® was added to wells for 15 minutes at room temperature and luminescence was measured on an EnVision™ 2104 Multilabel Plate Reader.

[3] = target: AAK1 (Homo sapiens (Human), UniProt Q2M2I8); assay: KINOMEscan; type: binding; settings: AAK1, 10000 nM; read-out: Percent Control
[4] = target: CAMK1D (Homo sapiens (Human), UniProt Q8IU85); assay: KINOMEscan; type: binding; settings: 10000 nM, read-out: Percent Control
[5] = target: CAMK1G (Homo sapiens (Human), UniProt Q96NX5); assay: KINOMEscan; type: binding; settings: 10000 nM, read-out: Percent Control
[6] = target: NEK1 (Homo sapiens (Human), UniProt Q96PY6); assay: KINOMEscan; type: binding; settings: NEK1, 10000 nM; read-out: Percent Control
[7] = target: NEK2 (Homo sapiens (Human), UniProt P51955); assay: KINOMEscan; type: binding; settings: NEK2, 10000 nM; read-out: Percent Control
[8] = target: SIK2 (Homo sapiens (Human), UniProt Q9H0K1); assay: KINOMEscan; type: binding; settings: SIK2, 10000 nM; read-out: Percent Control
[9] = target: TNNI3K (Homo sapiens (Human), UniProt Q59H18); assay: KINOMEscan; type: binding; settings: 10000 nM, read-out: Percent Control
[10] = target: VEGFR2 (Homo sapiens (Human), UniProt P35968); assay: KINOMEscan; type: binding; settings: VEGFR2, 10000 nM; read-out: Percent Control
[11] = target: DCLK1 (Homo sapiens (Human), UniProt O15075); assay: Biochemical IC50 (Invitrogen) of off-targets
[12] = target: DCLK2 (Homo sapiens (Human), UniProt Q8N568); assay: Biochemical IC50 (Invitrogen) of off-targets
[13] = target: PLK1 (Homo sapiens (Human), UniProt P53350); assay: Biochemical IC50 (Invitrogen) of off-targets
[14] = target: STK33 (Homo sapiens (Human), UniProt Q9BYT3); assay: Biochemical IC50 (Invitrogen) of off-targets
[15] = target: TNK1 (Homo sapiens (Human), UniProt Q13470); assay: Biochemical IC50 (Invitrogen) of off-targets
[16] = enzymatic, Z′-LYTE, read-out: FAK IC50

Sequence of PTK2 (FAK) (Q05397 whole entry): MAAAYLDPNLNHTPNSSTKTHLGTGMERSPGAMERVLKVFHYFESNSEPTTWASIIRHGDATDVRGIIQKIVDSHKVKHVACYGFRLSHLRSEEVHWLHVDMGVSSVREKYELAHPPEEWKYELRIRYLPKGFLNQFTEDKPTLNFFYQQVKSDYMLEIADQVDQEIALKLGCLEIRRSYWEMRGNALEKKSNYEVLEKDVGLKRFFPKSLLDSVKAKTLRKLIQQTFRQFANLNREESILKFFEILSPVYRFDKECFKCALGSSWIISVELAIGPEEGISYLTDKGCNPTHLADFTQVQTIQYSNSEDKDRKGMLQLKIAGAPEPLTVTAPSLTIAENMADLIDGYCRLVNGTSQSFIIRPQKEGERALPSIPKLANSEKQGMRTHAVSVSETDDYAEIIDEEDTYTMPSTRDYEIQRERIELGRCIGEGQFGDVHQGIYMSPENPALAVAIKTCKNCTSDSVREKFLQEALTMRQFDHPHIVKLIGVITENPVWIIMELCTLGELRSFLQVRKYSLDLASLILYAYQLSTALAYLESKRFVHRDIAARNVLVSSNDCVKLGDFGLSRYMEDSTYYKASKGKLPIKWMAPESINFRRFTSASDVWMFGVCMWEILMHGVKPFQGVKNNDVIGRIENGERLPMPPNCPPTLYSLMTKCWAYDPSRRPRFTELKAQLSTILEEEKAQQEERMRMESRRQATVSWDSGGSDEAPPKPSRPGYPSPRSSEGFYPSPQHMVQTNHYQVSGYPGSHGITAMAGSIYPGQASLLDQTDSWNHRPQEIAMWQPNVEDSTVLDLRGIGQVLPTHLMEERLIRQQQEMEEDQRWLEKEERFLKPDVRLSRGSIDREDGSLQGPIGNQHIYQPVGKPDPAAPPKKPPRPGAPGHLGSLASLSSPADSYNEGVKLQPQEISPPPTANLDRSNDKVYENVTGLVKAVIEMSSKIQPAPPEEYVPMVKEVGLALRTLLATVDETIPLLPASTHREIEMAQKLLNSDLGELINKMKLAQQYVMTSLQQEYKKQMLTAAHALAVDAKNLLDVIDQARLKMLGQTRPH
Sequence of NEK1 (Q96PY6 whole entry): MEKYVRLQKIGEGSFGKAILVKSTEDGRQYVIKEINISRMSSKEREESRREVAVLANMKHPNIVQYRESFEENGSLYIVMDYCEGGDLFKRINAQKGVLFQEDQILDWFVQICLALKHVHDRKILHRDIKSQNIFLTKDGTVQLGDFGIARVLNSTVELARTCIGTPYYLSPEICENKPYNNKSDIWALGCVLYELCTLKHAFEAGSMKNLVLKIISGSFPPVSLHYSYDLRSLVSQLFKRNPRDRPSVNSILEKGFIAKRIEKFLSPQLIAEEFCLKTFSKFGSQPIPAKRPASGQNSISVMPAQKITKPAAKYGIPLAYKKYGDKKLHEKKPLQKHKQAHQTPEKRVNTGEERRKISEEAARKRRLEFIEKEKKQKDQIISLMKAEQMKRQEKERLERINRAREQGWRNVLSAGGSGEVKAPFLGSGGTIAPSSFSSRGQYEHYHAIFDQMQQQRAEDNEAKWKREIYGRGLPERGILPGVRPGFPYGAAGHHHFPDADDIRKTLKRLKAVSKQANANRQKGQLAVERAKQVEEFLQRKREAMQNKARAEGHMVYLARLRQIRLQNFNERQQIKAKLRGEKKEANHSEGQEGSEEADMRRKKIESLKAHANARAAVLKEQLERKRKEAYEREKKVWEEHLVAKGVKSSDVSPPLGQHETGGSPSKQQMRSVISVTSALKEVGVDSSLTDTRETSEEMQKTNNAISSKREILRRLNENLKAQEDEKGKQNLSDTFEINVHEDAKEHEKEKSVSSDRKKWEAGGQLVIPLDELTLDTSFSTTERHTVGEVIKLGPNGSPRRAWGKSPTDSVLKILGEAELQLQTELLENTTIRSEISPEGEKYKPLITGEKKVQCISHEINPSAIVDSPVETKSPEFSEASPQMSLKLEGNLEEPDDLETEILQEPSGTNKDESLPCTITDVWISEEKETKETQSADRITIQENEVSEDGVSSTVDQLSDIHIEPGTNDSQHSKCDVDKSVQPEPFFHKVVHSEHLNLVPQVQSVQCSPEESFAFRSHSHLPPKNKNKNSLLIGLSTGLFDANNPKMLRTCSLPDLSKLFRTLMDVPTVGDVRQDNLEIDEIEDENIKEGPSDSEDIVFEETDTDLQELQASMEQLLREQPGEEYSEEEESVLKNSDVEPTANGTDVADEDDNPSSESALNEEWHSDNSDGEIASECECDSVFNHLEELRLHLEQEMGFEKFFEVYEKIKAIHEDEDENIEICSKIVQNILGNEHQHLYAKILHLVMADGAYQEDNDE
Sequence of SIK2 (Q9H0K1 whole entry): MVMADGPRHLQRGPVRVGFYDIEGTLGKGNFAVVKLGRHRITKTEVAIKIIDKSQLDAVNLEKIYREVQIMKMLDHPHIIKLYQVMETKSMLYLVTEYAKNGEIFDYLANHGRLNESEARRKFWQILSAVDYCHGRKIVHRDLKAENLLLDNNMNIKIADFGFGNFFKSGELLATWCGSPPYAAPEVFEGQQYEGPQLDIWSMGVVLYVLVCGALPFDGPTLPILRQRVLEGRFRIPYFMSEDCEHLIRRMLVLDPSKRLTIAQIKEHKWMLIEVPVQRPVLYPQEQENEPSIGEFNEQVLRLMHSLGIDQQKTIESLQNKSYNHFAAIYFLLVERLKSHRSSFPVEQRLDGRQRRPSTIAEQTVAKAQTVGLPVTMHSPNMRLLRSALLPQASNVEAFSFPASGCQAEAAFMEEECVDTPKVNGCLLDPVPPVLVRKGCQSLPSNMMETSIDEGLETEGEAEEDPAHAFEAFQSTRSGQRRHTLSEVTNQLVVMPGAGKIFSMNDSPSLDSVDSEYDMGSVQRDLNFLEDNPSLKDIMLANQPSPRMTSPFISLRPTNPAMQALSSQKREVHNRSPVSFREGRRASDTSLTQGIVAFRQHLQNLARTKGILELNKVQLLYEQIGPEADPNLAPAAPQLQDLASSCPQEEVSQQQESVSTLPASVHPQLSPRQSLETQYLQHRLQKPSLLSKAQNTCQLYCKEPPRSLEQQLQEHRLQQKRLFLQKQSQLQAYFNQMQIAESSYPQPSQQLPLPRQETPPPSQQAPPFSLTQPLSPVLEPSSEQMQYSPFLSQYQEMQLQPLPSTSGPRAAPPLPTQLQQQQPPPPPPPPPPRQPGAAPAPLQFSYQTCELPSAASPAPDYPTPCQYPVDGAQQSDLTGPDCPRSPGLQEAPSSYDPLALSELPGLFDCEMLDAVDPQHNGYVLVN
Sequence of NEK2 (P51955 whole entry): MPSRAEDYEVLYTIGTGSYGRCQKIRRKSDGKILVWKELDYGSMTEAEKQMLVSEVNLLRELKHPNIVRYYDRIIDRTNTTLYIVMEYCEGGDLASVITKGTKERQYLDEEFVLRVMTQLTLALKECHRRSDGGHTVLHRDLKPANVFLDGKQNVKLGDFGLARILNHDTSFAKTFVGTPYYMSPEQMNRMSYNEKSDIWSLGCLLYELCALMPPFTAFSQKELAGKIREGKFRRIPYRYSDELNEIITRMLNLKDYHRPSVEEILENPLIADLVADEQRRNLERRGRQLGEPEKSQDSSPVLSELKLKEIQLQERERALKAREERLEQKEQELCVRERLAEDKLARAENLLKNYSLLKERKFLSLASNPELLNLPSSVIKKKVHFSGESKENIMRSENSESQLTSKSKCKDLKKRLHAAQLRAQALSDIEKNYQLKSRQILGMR
Sequence of CAMK1G (Q96NX5 whole entry): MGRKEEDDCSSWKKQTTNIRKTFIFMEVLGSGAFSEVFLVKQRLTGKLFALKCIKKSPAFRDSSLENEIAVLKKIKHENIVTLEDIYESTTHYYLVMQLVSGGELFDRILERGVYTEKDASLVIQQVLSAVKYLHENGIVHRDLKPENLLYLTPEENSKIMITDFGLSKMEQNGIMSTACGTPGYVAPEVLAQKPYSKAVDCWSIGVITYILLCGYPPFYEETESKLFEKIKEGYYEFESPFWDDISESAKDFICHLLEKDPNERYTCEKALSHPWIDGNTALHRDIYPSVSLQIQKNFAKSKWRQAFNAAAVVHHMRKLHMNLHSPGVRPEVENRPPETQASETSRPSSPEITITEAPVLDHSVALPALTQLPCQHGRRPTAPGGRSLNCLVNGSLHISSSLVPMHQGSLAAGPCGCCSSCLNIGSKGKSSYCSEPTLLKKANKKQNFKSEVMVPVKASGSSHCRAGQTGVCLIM
Sequence of CAMK1D (Q8IU85 whole entry): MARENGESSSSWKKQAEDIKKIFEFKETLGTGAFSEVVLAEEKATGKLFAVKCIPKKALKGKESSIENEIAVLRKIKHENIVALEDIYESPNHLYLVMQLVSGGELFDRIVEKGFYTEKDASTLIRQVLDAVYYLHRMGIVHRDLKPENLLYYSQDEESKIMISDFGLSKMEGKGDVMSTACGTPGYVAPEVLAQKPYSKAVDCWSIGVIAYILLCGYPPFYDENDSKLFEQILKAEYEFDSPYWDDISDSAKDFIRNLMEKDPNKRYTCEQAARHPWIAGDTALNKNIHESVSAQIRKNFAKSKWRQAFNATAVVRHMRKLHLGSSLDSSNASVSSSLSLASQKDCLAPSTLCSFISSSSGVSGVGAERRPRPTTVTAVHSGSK
Sequence of STK33 (Q9BYT3 whole entry): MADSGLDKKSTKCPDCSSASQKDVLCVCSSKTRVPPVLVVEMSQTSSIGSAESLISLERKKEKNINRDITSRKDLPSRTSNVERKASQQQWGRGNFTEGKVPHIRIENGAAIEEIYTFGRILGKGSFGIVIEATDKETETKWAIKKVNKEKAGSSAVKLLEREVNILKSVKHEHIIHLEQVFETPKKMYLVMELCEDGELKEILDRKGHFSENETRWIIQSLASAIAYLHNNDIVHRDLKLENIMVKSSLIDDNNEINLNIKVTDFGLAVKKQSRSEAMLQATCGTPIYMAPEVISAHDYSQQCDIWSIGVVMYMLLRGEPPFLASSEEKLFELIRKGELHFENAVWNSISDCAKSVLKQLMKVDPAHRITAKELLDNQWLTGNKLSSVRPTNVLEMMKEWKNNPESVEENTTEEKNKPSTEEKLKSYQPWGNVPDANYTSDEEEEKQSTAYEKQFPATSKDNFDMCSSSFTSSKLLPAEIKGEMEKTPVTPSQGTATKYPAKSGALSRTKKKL

Compound | IC50 [1, 16] | IC50 [2] [µM] | remaining binding at 10 µM [3] [%] | remaining binding at 10 µM [4] [%] | remaining binding at 10 µM [5] [%] | remaining binding at 10 µM [6] [%] | remaining binding at 10 µM [7] [%] | remaining binding at 10 µM [8] [%] | remaining binding at 10 µM [9] [%] | remaining binding at 10 µM [10] [%] | IC50 ([1]; FAK, Invitrogen, read-out: Biochemical IC50) [µM] | IC50 [11] [µM] | IC50 [12] [µM] | IC50 [13] [µM] | IC50 [14] [µM] | IC50 [15] [µM]
COc1cc(N2CCC(N3CCN(C)CC3)CC2)ccc1Nc1ncc2c(n1)N(C)c1sc(C)nc1C(=O)N2 [Compound 3, 6-((2-methoxy-4-(4-(4-methylpiperazin-1-yl)piperidin-1-yl)phenyl)amino)-2,4-dimethyl-4,9-dihydro-10H-pyrimido[5,4-b]thiazolo[5,4-e][1,4]diazepin-10-one] | 0.062 µM and 0.0622 µM | 6.8 | 48 | 98 | 74 | 78 | 84 | 86 | 79 | 100 |  |  |  |  |  | 
COc1cc(N2CCC(N3CCN(C)CC3)CC2)ccc1Nc1ncc2c(n1)N(C)c1sc(C)nc1C(=O)N2C [Compound 5, 6-((2-methoxy-4-(4-(4-methylpiperazin-1-yl)piperidin-1-yl)phenyl)amino)-2,4,9-trimethyl-4,9-dihydro-10H-pyrimido[5,4-b]thiazolo[5,4-e][1,4]diazepin-10-one] | 0.0183 µM |  |  | 86 | 95 | 97 | 100 | 99 | 88 | 95 | 0.0202 ± 0.0019 | 6.5 | 3.12 | 8.28 | 2.13 | 3.17

Source: patent US12365696B2, “Small-molecule focal adhesion kinase (FAK) inhibitors” (DANA-FARBER CANCER INSTITUTE, INC., priority 2019, dated 2025)
